Assay results: patent publication US6720346B2, “Thiazole benzamide derivatives and pharmaceutical compositions for inhibiting cell proliferation” (Agouron Pharmaceuticals, Inc., priority 2001, dated 2004)

What was measured:
CDK2/cyclin A = target: T1, CDK2/cyclin A (Homo sapiens, UniProt P24941); assay: Inhibition of CDK2/cyclin A retinoblastoma kinase activity (Ki; % inhibition); format: biochemical
T1 construct: made in house; host or cells: CDK2: insect cells (baculovirus); cyclin A: E. coli
Summary of the method: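 Apparent Ki values came from fitting concentration-dependent activity data to competitive (or competitive tight-binding) models, and % inhibition from single 30 nM screens of library compounds. Activity was measured as ³²P/³³P incorporation from 25 μM ATP into an Rb substrate by 10 or 19 nM CDK2/delta cyclin A at 30 °C over 60–75 min, pH 7.4.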

human CDK4/cyclin D3 = target: T2, human CDK4/cyclin D3 (Homo sapiens, UniProt P11802); assay: Inhibition of CDK4/cyclin D retinoblastoma kinase activity (Ki; % inhibition); format: biochemical
T2 construct: made in house; host or cells: insect cells co-infected with baculovirus vectors
Summary of the method: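 Radiometric filter-binding read-out: Rb residues 386-928 phosphorylated by 5 nM CDK4/cyclin D3(1-264) from baculovirus-infected insect cells, 25 μM ATP, HEPES pH 7.4, 30 °C. Run 20 min, or 60 min for tight-binding inhibitors. Screening at 30 nM theoretical compound; apparent Ki by competitive-inhibition fitting.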

HCT-116 cell line = assay: Inhibition of cell growth, MTT tetrazolium salt assay; format: cell-based
Summary of the method: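 Cells in McCoy's 5A medium were given 4 h before compound addition in 0.5% (v/v) DMSO, then incubated 3–5 days at 37 °C, 5% CO2. After 4 h with 0.2 mg/mL MTT, DMSO-solubilized formazan was read at 540 nm; 50% and 90% growth-inhibitory concentrations came from semi-log plots against vehicle controls.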

[1] = HCT-116 cells, 0.25 μM compound

T2 sequence (P11802 whole entry): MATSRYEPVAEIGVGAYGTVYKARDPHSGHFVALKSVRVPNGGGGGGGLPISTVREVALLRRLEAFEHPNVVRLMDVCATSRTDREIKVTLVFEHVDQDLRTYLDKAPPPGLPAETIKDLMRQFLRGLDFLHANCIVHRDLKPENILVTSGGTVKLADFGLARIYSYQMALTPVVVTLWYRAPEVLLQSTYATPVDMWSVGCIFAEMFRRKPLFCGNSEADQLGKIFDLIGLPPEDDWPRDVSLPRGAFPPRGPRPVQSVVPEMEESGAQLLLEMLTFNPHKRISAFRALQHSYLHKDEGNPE
T2 sequence (P30281 1-264 partner limits assumed): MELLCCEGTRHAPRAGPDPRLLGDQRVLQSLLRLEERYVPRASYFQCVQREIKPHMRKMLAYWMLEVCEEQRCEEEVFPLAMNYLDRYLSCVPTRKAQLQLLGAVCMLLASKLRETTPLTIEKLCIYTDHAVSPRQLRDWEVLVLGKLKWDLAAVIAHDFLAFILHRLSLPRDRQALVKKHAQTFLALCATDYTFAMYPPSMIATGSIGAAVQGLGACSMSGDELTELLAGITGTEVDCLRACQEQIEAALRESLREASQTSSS

| Compound | CDK2 % Inhibition at 0.03 μM (CDK2/cyclin A; at 0.03 μM) | CDK4 % Inhibition at 0.03 μM (human CDK4/cyclin D3; at 0.03 μM) | HCT-116 % Inhibition at 0.1 μM (HCT-116 cell line; HCT-116, at 0.1 μM) | HCT-116 % Inhibition at 0.25 μM (HCT-116 cell line; HCT-116, at 0.25 μM) | also measured |
| --- | --- | --- | --- | --- | --- |
| Cc1cccc(CNC(=O)c2ccc(Nc3nc(N)c(C(=O)c4c(F)cccc4F)s3)cc2)c1C [Example G294] | – | – | – | – | CDK2 % Inhibition at 0.03 μM (CDK2/cyclin A; 0.03 μM compound): 30%; CDK4 % Inhibition at 0.03 μM (human CDK4/cyclin D3; 0.03 μM compound): 29%; HCT-116 % Inhibition at 0.1 μM (HCT-116 cell line; HCT-116 cells, 0.1 μM compound): 15%; HCT-116 % Inhibition at 0.25 μM (HCT-116 cell line; [1]): 74% |
| CN(C)C1(CNC(=O)c2ccc(Nc3nc(N)c(C(=O)c4c(F)cccc4F)s3)cc2)CCC1 [Example A78, 4-{[4-Amino-5-(2,6-difluorobenzoyl)-1,3-thiazol-2-yl]amino}-N-{[1-(dimethylamino)cyclobutyl]methyl}benzamide] | – | – | – | – | Ki (CDK2/cyclin A; apparent Ki, CDK2/cyclin A, Rb substrate): 110 nM; Ki (human CDK4/cyclin D3; apparent Ki, CDK4/cyclin D3, Rb substrate): 8.2 nM; IC50 (HCT-116 cell line; Homo sapiens, HCT-116, 120 h, MTT, three to five days): 130 nM |
| CCN(CCCCO)C(=O)c1ccc(Nc2nc(N)c(C(=O)c3c(F)cccc3F)s2)cc1 [Example G385] | – | – | – | – | CDK2 % Inhibition at 0.03 μM (CDK2/cyclin A; 0.03 μM compound): 1%; CDK4 % Inhibition at 0.03 μM (human CDK4/cyclin D3; 0.03 μM compound): −1%; HCT-116 % Inhibition at 0.1 μM (HCT-116 cell line; HCT-116 cells, 0.1 μM compound): 28%; HCT-116 % Inhibition at 0.25 μM (HCT-116 cell line; [1]): 50% |
| Nc1nc(Nc2ccc(C(=O)NC3CCN(Cc4ccccc4)C3)cc2)sc1C(=O)c1c(F)cccc1F (stereo not shown) [Example G353] | – | – | – | – | CDK2 % Inhibition at 0.03 μM (CDK2/cyclin A; 0.03 μM compound, 0.03 µM): 35%; CDK4 % Inhibition at 0.03 μM (human CDK4/cyclin D3; 0.03 μM compound, 0.03 µM): 46%; HCT-116 % Inhibition at 0.1 μM (HCT-116 cell line; HCT-116 cells, 0.1 μM compound, 0.1 µM): 0%; HCT-116 % Inhibition at 0.25 μM (HCT-116 cell line; HCT-116 cells, 0.25 μM compound, 0.25 µM): 55% |
| Nc1nc(Nc2ccc(C(=O)N3CCN(C(=O)c4ccco4)CC3)cc2)sc1C(=O)c1c(F)cccc1F [Example G32] | 8% | 27% | – | 55% | – |
| COc1cccc(CCNC(=O)c2ccc(Nc3nc(N)c(C(=O)c4c(F)cccc4F)s3)cc2)c1OC [Example G203] | – | – | – | – | CDK2 % Inhibition at 0.03 μM (CDK2/cyclin A; 0.03 μM compound): 7%; CDK4 % Inhibition at 0.03 μM (human CDK4/cyclin D3; 0.03 μM compound): 20%; HCT-116 % Inhibition at 0.1 μM (HCT-116 cell line; HCT-116 cells, 0.1 μM compound): 18%; HCT-116 % Inhibition at 0.25 μM (HCT-116 cell line; [1]): 53% |
| Nc1nc(Nc2ccc(C(=O)NCCc3ccc(Cl)cc3Cl)cc2)sc1C(=O)c1c(F)cccc1F [Example G196] | 7% | 13% | 13% | 48% | – |
| CCOC(=O)CC(C)NC(=O)c1ccc(Nc2nc(N)c(C(=O)c3c(F)cccc3F)s2)cc1 (stereo not shown) [Example G117] | 4% | 13% | 6% | 55% | – |
| Nc1nc(Nc2ccc(C(=O)Nc3ccccc3CO)cc2)sc1C(=O)c1c(F)cccc1F [Example G53] | 17% | 6% | – | 89% | – |
| Cc1cccc(CNC(=O)c2ccc(Nc3nc(N)c(C(=O)c4c(F)cccc4F)s3)cc2)c1 [Example G360] | – | – | – | – | CDK2 % Inhibition at 0.03 μM (CDK2/cyclin A; 0.03 μM compound): 31%; CDK4 % Inhibition at 0.03 μM (human CDK4/cyclin D3; 0.03 μM compound): 9%; HCT-116 % Inhibition at 0.1 μM (HCT-116 cell line; HCT-116 cells, 0.1 μM compound): 18%; HCT-116 % Inhibition at 0.25 μM (HCT-116 cell line; [1]): 73% |

Second part, led by results:

| CDK2 % Inhibition at 0.03 μM (CDK2/cyclin A; at 0.03 μM) | CDK4 % Inhibition at 0.03 μM (human CDK4/cyclin D3; at 0.03 μM) | Compound | HCT-116 % Inhibition at 0.1 μM (HCT-116 cell line; HCT-116, at 0.1 μM) | HCT-116 % Inhibition at 0.25 μM (HCT-116 cell line; HCT-116, at 0.25 μM) | also measured |
| --- | --- | --- | --- | --- | --- |
| 7% | 30% | CCCCNC(=O)c1ccc(Nc2nc(N)c(C(=O)c3c(F)cccc3F)s2)cc1 [Example G186] | 14% | 51% | – |
| 11% | 19% | Nc1nc(Nc2ccc(C(=O)NC3CCOC3=O)cc2)sc1C(=O)c1c(F)cccc1F (stereo not shown) [Example G129] | 0% | 51% | – |
| 38% | 49% | COc1ccc(CNC(=O)c2ccc(Nc3nc(N)c(C(=O)c4c(F)cccc4F)s3)cc2)cc1 [Example G169] | 32% | 71% | – |
| 19% | 26% | COc1cccc(CCNC(=O)c2ccc(Nc3nc(N)c(C(=O)c4c(F)cccc4F)s3)cc2)c1 [Example G193] | 17% | 56% | – |
| 3% | 9% | Nc1ccc(CCNC(=O)c2ccc(Nc3nc(N)c(C(=O)c4c(F)cccc4F)s3)cc2)cc1 [Example G105] | 24% | 67% | – |
| 10% | 17% | Nc1nc(Nc2ccc(C(=O)NCCN3CCOCC3)cc2)sc1C(=O)c1c(F)cccc1F [Example G124] | 0% | 64% | – |
